The values that follow are results of earlier work, collected in patent publication US20180256731A1, “NOVEL INSULIN ANALOG AND USE THEREOF” (HANMI PHARM. CO., LTD, priority 2013, published 2018).

The conditions of this series: commercially available long-acting insulin.

As for insulin detemir, the “lasting for (duration)” value is 18 to 22 h.

For insulin glargine, the “lasting for (duration)” value was 20 to 22 h.
